{"source": "ChEMBL document CHEMBL1201862", "about": "“PubChem BioAssay data set” (2004)", "key": {"[1]": {"assay": "human group III sPLA2 inhibitors, dose response, biochemical, QFRET, IC50 (AID 743457);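 further: green fluorescence rise as the enzyme cleaves BODIPY PC-A2 in liposomes; potency for inhibition of the enzyme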"}, "[2]": {"test_system": "INS1", "assay": "beta cell apoptosis inhibitors, cytokine rescue, dose response, luminescence, retest (AID 449756);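 further: cell death triggered by IL-1 beta plus TNF-alpha plus IFN-gamma mixture; protective hits raise ATP signal compared with cytokine alone wells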", "assay_type": "functional, cell-based", "details": "Rattus norvegicus"}, "[3]": {"assay": "cells", "assay_type": "functional, cell-based"}, "[4]": {"assay": "cells", "assay_type": "functional, cell-based", "remark": "listed apart in the source"}, "[5]": {"target": "Fructose-bisphosphate aldolase (Mycobacterium tuberculosis, UniProt P9WQA3)", "sequence (P9WQA3 whole entry)": "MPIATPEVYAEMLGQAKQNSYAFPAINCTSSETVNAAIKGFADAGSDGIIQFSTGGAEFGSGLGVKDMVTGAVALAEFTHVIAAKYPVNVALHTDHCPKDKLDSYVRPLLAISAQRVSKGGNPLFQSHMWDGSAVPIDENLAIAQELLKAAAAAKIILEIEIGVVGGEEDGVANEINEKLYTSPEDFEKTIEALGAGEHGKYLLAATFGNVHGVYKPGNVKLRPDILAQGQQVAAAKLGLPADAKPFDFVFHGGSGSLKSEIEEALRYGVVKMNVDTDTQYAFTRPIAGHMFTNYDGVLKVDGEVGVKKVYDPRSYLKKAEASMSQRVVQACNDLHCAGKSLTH", "assay": "Fluorescence-based biochemical high throughput dose response assay for inhibitors of the fructose-bisphosphate aldolase (FBA) of M. tuberculosis.", "assay_type": "functional"}, "[6]": {"assay": "HEK293 cell cytotoxicity, dose response, cytotoxicity control, plate reader, cherry-picked samples (AID 743446)", "assay_type": "functional, cell-based"}, "[7]": {"assay": "HepG2 cell cytotoxicity, dose response, cytotoxicity control, plate reader, cherry-pick, antagonist series (AID 743416)", "assay_type": "functional, cell-based"}, "[8]": {"assay": "A549 cell cytotoxicity, dose response, cytotoxicity control, plate reader, cherry-pick, antagonist series (AID 743412)", "assay_type": "functional, cell-based"}, "[9]": {"assay": "HEK293 Cytotoxicity Assay Measured in Cell-Based System Using Plate Reader - 7071-01_Inhibitor_Dose_CherryPick_Activity_Set2.", "assay_type": "functional"}, "[10]": {"test_system": "HeLa", "assay": "HeLa cell cytotoxicity, dose response, cytotoxicity control, ATP luminescence, cherry-pick samples (AID 687004)", "assay_type": "functional, cell-based", "details": "Homo sapiens"}, "[11]": {"test_system": "HEK293", "assay": "HEK293T cell cytotoxicity, dose response, cytotoxicity control, ATP luminescence, cherry-pick samples (AID 687005);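 further: cells exposed to compound for 48 hours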", "assay_type": "functional, cell-based", "details": "Homo sapiens"}, "[12]": {"test_system": "Cryptococcus neoformans", "assay": "PubChem AID 686997", "assay_type": "functional, organism-based"}, "[13]": {"assay": "HEK293T cytotoxicity, dose response, cytotoxicity control for miR-122 modulator project, cell-based, inhibitor set, cherry-pick, set 2 (AID 720697)", "assay_type": "functional"}, "[14]": {"assay": "T. cruzi growth inhibition in host cells, dose response, cell-based, plate reader, dry powder, set 2 (AID 652275)", "assay_type": "functional"}, "[15]": {"target": "Galanin receptor type 3 (Homo sapiens, UniProt O60755)", "sequence (O60755 whole entry)": "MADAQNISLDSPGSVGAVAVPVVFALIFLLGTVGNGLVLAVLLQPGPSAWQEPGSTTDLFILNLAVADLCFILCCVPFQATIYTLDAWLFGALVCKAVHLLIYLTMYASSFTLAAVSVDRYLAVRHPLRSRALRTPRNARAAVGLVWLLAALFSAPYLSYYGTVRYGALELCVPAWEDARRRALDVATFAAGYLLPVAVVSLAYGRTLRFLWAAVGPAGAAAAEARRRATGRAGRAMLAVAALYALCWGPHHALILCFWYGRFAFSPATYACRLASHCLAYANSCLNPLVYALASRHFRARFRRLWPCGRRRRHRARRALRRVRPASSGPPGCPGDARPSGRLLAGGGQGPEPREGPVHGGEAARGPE", "assay": "Fluorescence-based cell-based primary high throughput dose response assay to identify antagonists of the Galanin Receptor 3 (GalR3).", "assay_type": "functional"}, "[16]": {"target": "Paired box protein Pax-8 (Homo sapiens, UniProt Q06710)", "sequence (Q06710 whole entry)": "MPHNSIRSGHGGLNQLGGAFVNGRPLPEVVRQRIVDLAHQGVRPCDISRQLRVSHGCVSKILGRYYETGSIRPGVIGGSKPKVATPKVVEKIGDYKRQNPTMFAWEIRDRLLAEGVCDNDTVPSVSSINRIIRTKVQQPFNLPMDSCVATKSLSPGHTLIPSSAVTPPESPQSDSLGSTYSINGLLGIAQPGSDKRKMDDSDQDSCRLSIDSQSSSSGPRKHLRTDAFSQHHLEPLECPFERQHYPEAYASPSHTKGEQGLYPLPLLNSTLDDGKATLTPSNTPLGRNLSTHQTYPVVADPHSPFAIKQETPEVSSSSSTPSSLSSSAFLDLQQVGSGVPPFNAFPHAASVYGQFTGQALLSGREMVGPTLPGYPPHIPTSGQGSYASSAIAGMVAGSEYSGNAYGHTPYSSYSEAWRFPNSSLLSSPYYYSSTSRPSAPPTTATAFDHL", "assay": "inhibitors of PAX8-driven TPO luciferase reporter, dose response, RMG-I cells, cherry-pick (AID 687027);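 further: luciferase reporter driven by Pax8 target thyroperoxidase promoter measured by SteadyGlo luminescence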", "assay_type": "functional, cell-based"}, "[17]": {"assay": "non-specific cell cytotoxicity, dose response, cytotoxicity control for PAX8 inhibitor project, plate reader, dry powder samples (AID 743021)", "assay_type": "functional, cell-based"}}, "note": "Calls of active or inactive are those of the source.", "data": [{"smiles": "CCOC(=O)N1CCN(S(=O)(=O)c2ccc(C(=O)NNc3nc4c(C)cc(C)cc4s3)cc2)CC1", "values": [{"measurement": "IC50", "setting": "[1]", "result": "24.6 µM (inactive)"}, {"measurement": "AC50", "setting": "[2]", "result": "4.46 µM (active)"}, {"measurement": "EC50", "setting": "[3]", "result": "> 350 µM (not active)"}, {"measurement": "EC50", "setting": "[4]", "result": "14.5 µM (active)"}]}, {"smiles": "CCc1c(C)c2ccc(OCC(N)=O)cc2oc1=O", "values": [{"measurement": "IC50", "setting": "[5]", "result": "> 0.37 µM (active)"}]}, {"smiles": "COc1ccc(S(=O)(=O)N2CCOCC2)cc1NC(=O)COc1ccc(C)cc1", "values": [{"measurement": "AC50", "setting": "[6]", "result": "28.1 µM (active)"}, {"measurement": "AC50", "setting": "[7]", "result": "8.95 µM (active)"}, {"measurement": "AC50", "setting": "[8]", "result": "8.06 µM (active)"}]}, {"smiles": "C[C@@H]1CN([C@H](C)CO)C(=O)c2c(c3ccccc3n2C)-c2ccccc2CO[C@H]1CN(C)S(=O)(=O)c1ccc(Cl)cc1", "values": [{"measurement": "AC50", "setting": "[9]", "result": "23.1 µM (active)"}, {"measurement": "AC50", "setting": "[10]", "result": "> 47 µM (inactive)"}, {"measurement": "AC50", "setting": "[11]", "result": "23.1 µM (active)"}]}, {"smiles": "COC(=O)C1=C(C)N(Cc2ccc(F)cc2)C(=S)NC1c1ccccc1", "note": "(configuration not stated)", "values": [{"measurement": "AC50", "setting": "[12]", "result": "> 76 µM (inactive)"}]}, {"smiles": "CCCC(=O)Nc1ccc2c(c1)C(=O)N(C)[C@@H]1CC[C@H](CC(=O)NCC(F)(F)F)O[C@H]1CO2", "values": [{"measurement": "AC50", "setting": "[13]", "result": "2.15 µM (active)"}]}, {"smiles": "CN1CCCCN2[C@@H](CO)[C@H](c3ccc(Br)cc3)[C@@H]2C1", "values": [{"measurement": "AC50", "setting": "[14]", "result": "16 µM (active)"}]}, {"smiles": "NC(=O)c1cn(C2OC(CO)C(O)C2O)c2ncnc(N)c12", "note": "(configuration not stated)", "values": [{"measurement": "IC50", "setting": "[15]", "result": "1.28 µM (active)"}, {"measurement": "AC50", "setting": "[16]", "result": "< 0.26 µM (active)"}, {"measurement": "AC50", "setting": "[17]", "result": "0.591 µM (active)"}]}]}
